Results: PubChem BioAssay AID276 (DTP/NCI, 2004)
“And” between values parts separate entries of the source, which are not always exact repeats. Identical values can stand only once. Inconclusive results and toxic doses are left out.

Tested on: B6C3F1 mice, Lewis lung carcinoma iv, survival T/C
Assay: NCI In Vivo Anticancer Drug Screen. Data for tumor model Lewis Lung Carcinoma (intravenous) in B6C3F1 mice
Settings: endpoint: median survival time, higher = longer survival
In short: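 Read-out is survival, expressed as the treated-group measurement over the vehicle control-group measurement. Animals bore a transplantable tumor and were given compound.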

[1] = dose: 1.56 mg/kg/injection, schedule: Q01DX009 (ip), vehicle: saline
[2] = dose: 3.12 mg/kg/injection, schedule: Q01DX009 (ip), vehicle: saline
[3] = dose: 6.25 mg/kg/injection, schedule: Q01DX009 (ip), vehicle: saline
[4] = dose: 12.5 mg/kg/injection, schedule: Q01DX009 (ip), vehicle: saline
[5] = dose: 25.0 mg/kg/injection, schedule: Q01DX009 (ip), vehicle: saline
[6] = dose: 50.0 mg/kg/injection, schedule: Q01DX009 (ip), vehicle: saline
[7] = dose: 100.0 mg/kg/injection, schedule: Q01DX009 (ip), vehicle: saline
[8] = dose: 200.0 mg/kg/injection, schedule: Q01DX009 (ip), vehicle: saline
[9] = dose: 400.0 mg/kg/injection, schedule: Q01DX009 (ip), vehicle: saline
[10] = dose: 100.0 mg/kg/injection, schedule: Q01DX009 (ip), vehicle: Klucel (hydroxypropylcellulose) (HPC)
[11] = dose: 200.0 mg/kg/injection, schedule: Q01DX009 (ip), vehicle: Klucel (hydroxypropylcellulose) (HPC)
[12] = dose: 12.5 mg/kg/injection, schedule: Q01DX009 (ip), vehicle: saline with Tween-80
[13] = dose: 25.0 mg/kg/injection, schedule: Q01DX009 (ip), vehicle: saline with Tween-80
[14] = dose: 50.0 mg/kg/injection, schedule: Q01DX009 (ip), vehicle: saline with Tween-80
[15] = dose: 100.0 mg/kg/injection, schedule: Q01DX009 (ip), vehicle: saline with Tween-80
[16] = dose: 200.0 mg/kg/injection, schedule: Q01DX009 (ip), vehicle: saline with Tween-80
[17] = dose: 6.25 mg/kg/injection, schedule: Q01DX009 (ip), vehicle: saline with Tween-80
[18] = dose: 400.0 mg/kg/injection, schedule: Q01DX009 (ip), vehicle: saline with Tween-80

`C=C(C)/C([O-])=N/[N+](C)(C)CC(O)CCCCCCCCCCCC` (stereo unspecified) was tested, and the T/C (dose: 1.56 mg/kg/injection, schedule: Q01DX001 (ip), vehicle: saline) was 96 % of control, the T/C (dose: 3.12 mg/kg/injection, schedule: Q01DX001 (ip), vehicle: saline) was 104 % of control and the T/C (dose: 6.25 mg/kg/injection, schedule: Q01DX001 (ip), vehicle: saline) was 98 % of control. The T/C (dose: 12.5 mg/kg/injection, schedule: Q01DX001 (ip), vehicle: saline) was 109 % of control, the T/C (dose: 25.0 mg/kg/injection, schedule: Q01DX001 (ip), vehicle: saline) was 103 % of control and 106 % of control and the T/C (dose: 50.0 mg/kg/injection, schedule: Q01DX001 (ip), vehicle: saline) was 98 % of control and 100 % of control. For the same compound, the T/C (dose: 100.0 mg/kg/injection, schedule: Q01DX001 (ip), vehicle: saline) was 95 % of control and the T/C (dose: 200.0 mg/kg/injection, schedule: Q01DX001 (ip), vehicle: saline) was 97 % of control.

For `COc1ccc(C(=O)C(CN(C)C)CN(C)C)cc1`, the T/C [1] was 96 % of control, the T/C [2] was 102 % of control and the T/C [3] was 102 % of control. The T/C [4] was 105 % of control and the T/C [5] was 105 % of control.

`C[CH2][Sn]([CH2]C)([O]S(C)(=O)=O)[O]S(C)(=O)=O` was tested, and the T/C (dose: 0.09 mg/kg/injection, schedule: Q01DX009 (ip), vehicle: saline) was 108 % of control, the T/C (dose: 0.19 mg/kg/injection, schedule: Q01DX009 (ip), vehicle: saline) was 97 % of control and the T/C (dose: 0.39 mg/kg/injection, schedule: Q01DX009 (ip), vehicle: saline) was 99 % of control. The T/C (dose: 0.79 mg/kg/injection, schedule: Q01DX009 (ip), vehicle: saline) was 109 % of control, the T/C [1] was 93 % of control and 102 % of control and the T/C [2] was 91 % of control and 87 % of control.

In the case of `CC(=O)Oc1c(C)[nH]ccc1=O`, the T/C [5] is reported as 97 % of control, the T/C [6] is reported as 96 % of control and the T/C [7] is reported as 96 % of control. The T/C [8] was 103 % of control and the T/C [9] was 114 % of control.

For `Oc1c(Cl)cc(Cl)cc1C1N2CCCCC2C2c3cccn3-c3ccccc3N21` (stereo unspecified), the T/C (dose: 12.5 mg/kg/injection, schedule: Q01DX009 (ip), vehicle: Klucel (hydroxypropylcellulose) (HPC)) was 106 % of control, the T/C (dose: 25.0 mg/kg/injection, schedule: Q01DX009 (ip), vehicle: Klucel (hydroxypropylcellulose) (HPC)) was 101 % of control and the T/C (dose: 50.0 mg/kg/injection, schedule: Q01DX009 (ip), vehicle: Klucel (hydroxypropylcellulose) (HPC)) was 104 % of control. For the same compound, the T/C [10] was 95 % of control and the T/C [11] was 102 % of control.

For `CCCN1COC(OCC)C(C)(C)C1` (stereo unspecified), the T/C [12] was 103 % of control and 111 % of control, the T/C [13] was 93 % of control and 99 % of control and the T/C [14] was 106 % of control and 112 % of control. The T/C [15] was 100 % of control and 101 % of control.

`c1nc(N2CC2)c2cnn(C3CCCCO3)c2n1` (stereo unspecified) was tested, and the T/C [14] was 103 % of control, the T/C [15] was 107 % of control and the T/C [16] was 112 % of control.

`COC(=O)Nc1nc2ccc(C3(c4ccc(F)cc4)OCCO3)cc2[nH]1` was tested, and the T/C [1] was 97 % of control, the T/C [2] was 106 % of control and the T/C [3] was 102 % of control. For the same compound, the T/C [4] was 104 % of control and the T/C [5] was 117 % of control.

With `CCCCc1ccc2nc(NC(=O)OC)[nH]c2c1` the T/C [17] was 111 % of control, the T/C [12] was 97 % of control and the T/C [13] was 95 % of control. The T/C [14] was 95 % of control and the T/C [15] was 111 % of control.

With `CC(=O)Nc1cscc1NC(C)=O` the T/C [13] was 103 % of control, the T/C [14] was 101 % of control and 106 % of control and the T/C [15] was 98 % of control. For the same compound, the T/C [16] was 94 % of control and 108 % of control and the T/C [18] was 112 % of control and 88 % of control.

With `COC(OC(CO)C(O)S(=O)(=O)O)C(O)S(=O)(=O)O` (stereo unspecified) the T/C [4] was 109 % of control, the T/C [5] was 106 % of control and the T/C [6] was 97 % of control. For the same compound, the T/C [7] was 102 % of control and the T/C [8] was 98 % of control.

With `CCCC(=O)OCC1OC(n2cnc3c(=S)nc[nH]c32)C(OC(=O)CCC)C1OC(=O)CCC` (stereo unspecified) the T/C [12] was 99 % of control, the T/C [13] was 99 % of control and the T/C [14] was 94 % of control.

In the case of `CNNCc1ccc(C(=O)NC(C)C)cc1`, the T/C [10] is reported as 153 % of control, the T/C [11] is reported as 151 % of control and the T/C (dose: 400.0 mg/kg/injection, schedule: Q01DX009 (ip), vehicle: Klucel (hydroxypropylcellulose) (HPC)) is reported as 200 % of control.

In the case of `COc1cccc2c1C(=O)c1c(O)c3c(c(O)c1C2=O)C[C@@](O)(/C(C)=N\O)C[C@@H]3OC1CC(N)C(O)C(C)O1` (stereo partly specified), the T/C (dose: 3.12 mg/kg/injection, schedule: Q01DX009 (ip), vehicle: water) is reported as 90 % of control, the T/C (dose: 6.25 mg/kg/injection, schedule: Q01DX009 (ip), vehicle: water) is reported as 86 % of control and the T/C (dose: 12.5 mg/kg/injection, schedule: Q01DX009 (ip), vehicle: water) is reported as 90 % of control.

With `C[C@H](N)C(=O)N[C@@H]1[C@H]2C(=C(O)C[C@@H](O)[C@@H]2O)C(=O)O[C@@H]1C` the T/C (dose: 75.0 mg/kg/injection, schedule: Q01DX009 (ip), vehicle: saline) was 102 % of control and 106 % of control, the T/C (dose: 150.0 mg/kg/injection, schedule: Q01DX009 (ip), vehicle: saline) was 105 % of control and 106 % of control and the T/C (dose: 300.0 mg/kg/injection, schedule: Q01DX009 (ip), vehicle: saline) was 107 % of control and 110 % of control. For the same compound, the T/C (dose: 600.0 mg/kg/injection, schedule: Q01DX009 (ip), vehicle: saline) was 114 % of control and 120 % of control and the T/C (dose: 1200.0 mg/kg/injection, schedule: Q01DX009 (ip), vehicle: saline) was 117 % of control.

In the case of `OCCO`, the T/C (dose: 0.12 % in 0.5 ml injection vol, schedule: Q01DX009 (ip), vehicle: water) is reported as 107 % of control, the T/C (dose: 0.25 % in 0.5 ml injection vol, schedule: Q01DX009 (ip), vehicle: water) is reported as 109 % of control and the T/C (dose: 0.5 % in 0.5 ml injection vol, schedule: Q01DX009 (ip), vehicle: water) is reported as 95 % of control. For the same compound, the T/C (dose: 1.0 % in 0.5 ml injection vol, schedule: Q01DX009 (ip), vehicle: water) was 99 % of control, the T/C (dose: 2.0 % in 0.5 ml injection vol, schedule: Q01DX009 (ip), vehicle: water) was 97 % of control and the T/C (dose: 4.0 % in 0.5 ml injection vol, schedule: Q01DX009 (ip), vehicle: water) was 99 % of control.

In the case of `CCOC(=O)c1cn(C)c2c1C(O)=C(C(=O)OC)CC(=O)N2`, the T/C [13] is reported as 97 % of control, the T/C [14] is reported as 104 % of control and the T/C [15] is reported as 113 % of control. The T/C [16] was 99 % of control and the T/C [18] was 105 % of control.

`CCN(CC)Cc1cc2[nH]c3c4ccc(Cl)cc4ncc3c2cc1OC` was tested, and the T/C [12] was 97 % of control, the T/C [13] was 101 % of control and the T/C [14] was 101 % of control.

With `Cc1cn(C2CC(F)C(CO)O2)c(=O)[nH]c1=O` (stereo unspecified) the T/C (dose: 12.5 mg/kg/injection, schedule: Q01DX009 (ip), vehicle: suspension in saline) was 106 % of control, the T/C (dose: 25.0 mg/kg/injection, schedule: Q01DX009 (ip), vehicle: suspension in saline) was 103 % of control and the T/C (dose: 50.0 mg/kg/injection, schedule: Q01DX009 (ip), vehicle: suspension in saline) was 106 % of control. For the same compound, the T/C (dose: 100.0 mg/kg/injection, schedule: Q01DX009 (ip), vehicle: suspension in saline) was 100 % of control, the T/C (dose: 200.0 mg/kg/injection, schedule: Q01DX009 (ip), vehicle: suspension in saline) was 121 % of control and the T/C (dose: 400.0 mg/kg/injection, schedule: Q01DX009 (ip), vehicle: suspension in saline) was 122 % of control.

In the case of `CC(=O)NCCCCCCNC(C)=O`, the T/C [5] is reported as 92 % of control and 96 % of control, the T/C [6] is reported as 90 % of control and 92 % of control and the T/C [7] is reported as 88 % of control and 106 % of control. The T/C [8] was 100 % of control and 102 % of control, the T/C [9] was 96 % of control and 103 % of control and the T/C (dose: 800.0 mg/kg/injection, schedule: Q01DX009 (ip), vehicle: saline) was 102 % of control and 105 % of control.

`C=C1N(C)c2ccccc2C1(C)C` was tested, and the T/C (dose: 3.12 mg/kg/injection, schedule: Q01DX009 (ip), vehicle: saline with Tween-80) was 107 % of control, the T/C [17] was 102 % of control and the T/C [12] was 109 % of control. For the same compound, the T/C [13] was 98 % of control and the T/C [14] was 110 % of control.

With `O=C1C(NCCO)=C(N2CC2)C(=O)C(NCCO)=C1N1CC1` the T/C (dose: 0.06 mg/kg/injection, schedule: Q01DX009 (ip), vehicle: saline) was 103 % of control, the T/C (dose: 0.12 mg/kg/injection, schedule: Q01DX009 (ip), vehicle: saline) was 97 % of control and the T/C (dose: 0.25 mg/kg/injection, schedule: Q01DX009 (ip), vehicle: saline) was 106 % of control. The T/C (dose: 0.5 mg/kg/injection, schedule: Q01DX009 (ip), vehicle: saline) was 108 % of control and the T/C (dose: 1.0 mg/kg/injection, schedule: Q01DX009 (ip), vehicle: saline) was 106 % of control.
